Like-named read-outs stand apart in the source and are kept apart here.
Columns and labels:
Type in all cases: cell-based
[1] = target: T1, mutant integrin CD11bE320A/CD18 (Homo sapiens, UniProt P11215, E336A); assay: HTS cell adhesion assay, K562 E320A cells on immobilized fibrinogen; conditions: five point dose-response
T1 construct: expressed in transfected cells; host or cells: K562 (ATCC)
Method in brief: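 K562 cells expressing the indicated CD11b/CD18 integrin were added to wells coated with 15 μg/mL fibrinogen and incubated with compound for 30 min at 37 °C in Ca2+/Mg2+ buffer. Non-adherent cells were removed by plate inversion. Adherent cells were fixed, stained with DAPI and counted by high-content imaging, scaled from 0% (1 mM Ca2+/Mg2+) to 100% (Mn2+ activation).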

integrin CD11c/CD18 = target: T2, integrin CD11c/CD18 (Homo sapiens, UniProt P20702); assay: HTS cell adhesion assay, K562 CD11c/CD18 cells on immobilized fibrinogen
T2 construct: expressed in transfected cells; host or cells: K562 (ATCC)
Experimental: (§1) K562 cells stably expressing CD11c/CD18 (K562 CD11c/CD18) were generated similarly. Mutant CD11bE320A has been described previously. K562 cells stably transfected with mutant integrin CD11bE320A/CD18 (K562 E320A) were generated according to literature protocols. All cell lines were maintained in Iscove's Modified Dulbecco's Medium (IMDM) supplemented with 10% heat-inactivated fetal bovine serum, 50 IU/mL penicillin and streptomycin and 0.5 mg/mL G418.
(§2) Cell adhesion assays with immobilized ligands were performed using the general protocol previously described and as illustrated in FIG. 1 [33]. Assays with all different K562 cell lines (K562, K562 CD11b/CD18, K562 CD11c/CD18 and K562 E320A) were performed in an identical fashion. Briefly, 384-well microplates (Corning 3700) were coated with 15 μg/mL fibrinogen (Fg) ligand in PBS^++ overnight at 4° C. At the same time, anti-CD18 (IB4) mAb was also coated. Subsequently, the coated wells were washed with 1% nonfat milk in TBS at room temperature for 1 hour. Next, the wells were washed 3 times with TBS, and the coated microplates were used in the HTS assays.
(§3) K562 CD11b/CD18, K562 CD11bE320A/CD18 and K562 CD11c/CD18 cells were washed with TBS, and cells were transferred to the Fg-coated wells of microplates in the assay buffer (Ca^2+ and Mg^2+ for physiological condition, Mn^2+ as the Positive control). A 1 μL aliquot of the compounds were transferred to each washed well with multichannel pipet from the 384-well plates.
(§4) The assay plates were incubated at 37° C. in the presence of small-molecule compounds for 30 min. To dislodge the non-adherent cell, the assay plates were gently inverted and kept in inverted position for 20 min at room temperature.
(§5) The cells were fixed with 37% formaldehyde in a small volume and the plates were kept inverted for 1 h. Upon the fixation, the solutions in the well were discarded. Next, the cells were fluorescently labeled with DAPI (0.5 μM final in TBS with 0.1% Triton X-100) and the quantitated with “Opera High Content Screening System” (Perkin Elmer).
Cell-adhesion under positive and negative control conditions was used to define the activity scale; signal corresponding to the number of non-small molecule treated cells adherent in activating buffer condition (in the presence of Mn^2+ ions as agonist, PC) was considered maximum (100% binding) and the signal corresponding to the number of non-small molecule treated cells adherent in basal buffer condition (in the presence of 1 mM each of Ca^2+ and Mg^2+, NC) was considered minimum (0% binding). […]
The compounds were diluted in DMSO by the final concentration 10 μM, 5 μM, 2.5 μM, 1.25 μM and 0.625 μM and stocked as sealed in 384-well plates at −80° C.

[2] = target: T3, wild-type integrin CD11b/CD18 (Homo sapiens, UniProt P11215); assay: HTS cell adhesion assay, K562 CD11b/CD18 cells on immobilized fibrinogen
T3 construct: expressed in transfected cells; host or cells: K562 (ATCC)
Experimental: as §1, with “Mutant CD11bE320A has been described previously.” left out
as §2, §3, §4, §5
Cell-adhesion under positive and negative control conditions was used to define the activity scale; signal corresponding to the number of non-small molecule treated cells adherent in activating buffer condition (in the presence of Mn^2+ ions as agonist, PC) was considered maximum (100% binding) and the signal corresponding to the number of non-small molecule treated cells adherent in basal buffer condition (in the presence of 1 mM each of Ca^2+ and Mg^2+, NC) was considered minimum (0% binding).

[3] = Table 3, adhesion to fibrinogen
[4] = Table 4, adhesion to fibrinogen
[5] = Table 3, K562 CD11c/CD18 cells, adhesion to fibrinogen, dose-response
[6] = Table 4, K562 CD11c/CD18 cells, adhesion to fibrinogen, dose-response
[7] = Table 3, adhesion to fibrinogen, 5-point dose-response
[8] = Table 4, adhesion to fibrinogen, dose-response

EC50 [1, 3] [µM] | EC50 (integrin CD11c/CD18) [nM] | SMILES | other results
6.69 |  | O=C(O)CCN1C(=O)/C(=C/c2ccc(-c3nc4ccccc4s3)o2)SC1=S [Compound 2030972] | EC50 [1, 4]: 6.69 µM; EC50 CD11c/CD18 (integrin CD11c/CD18; [5]): Very Low; EC50 CD11c/CD18 (integrin CD11c/CD18; [6]): N/A Very Low; EC50 CD11b/CD18 [2, 7]: Very Low; EC50 CD11b/CD18 [2, 8]: N/A Very Low
5.55 | 2710 | CCOC(=O)N1CCC(NC(=O)c2ccc3c(c2)sc2nc(-c4ccc(OC)cc4)cn23)CC1 [Compound 3235854] | 
1.28 | 691 | COc1ccc2cc3cc(C(=O)Nc4ccc5c(c4)OCCO5)oc3nc2c1 [Compound 3241193] | 
6.72 | 5050 | Cc1ccc2nc(-c3ccc(NC(=O)CCS(=O)(=O)c4ccccc4)cc3)sc2c1 [Compound 12005977] | 
2.39 | 1290 | CC(=O)Nc1ccc(-c2nnc(SCC(=O)n3c4c(c5ccccc53)CCCC4)n2C)cc1 [Compound 1310712] | 
6.19 | 3730 | CC(C)CNC(=O)c1c(N)n(/N=C/c2ccccn2)c2nc3ccccc3nc12 [Compound 9568664] | 
3.3 | 6270 | COc1cc(/C=C2\SC(N)=NC2=O)ccc1OCC(=O)Nc1ccc(C)cc1 [Compound 1308620] | 
3.62 | 2670 | O=C(Nc1ccc2oc(-c3ccccc3F)nc2c1)c1cncc(Br)c1 [Compound 1295289] | 
1.26 |  | O=C(Cn1c(=O)oc2cc(S(=O)(=O)N3CCCC3)ccc21)NC1CCCc2ccccc21 (stereo not drawn) [Compound 5308150] | EC50 [1, 4]: 1.26 µM; EC50 CD11c/CD18 (integrin CD11c/CD18; [5]): Very Low; EC50 CD11c/CD18 (integrin CD11c/CD18; [6]): N/A Very Low; EC50 CD11b/CD18 [2, 8]: N/A Very Low
2.46 | 2640 | CC(=O)c1ccc(NC(=O)c2ccc3nc(-c4ccco4)c(-c4ccco4)nc3c2)cc1 [Compound 1331726] | 
4.16 | 1030 | CCCCCCCC(=O)Nc1ccc(C(=O)N/N=C/c2cccc([N+](=O)[O-])c2)cc1 [Compound 9774264] | 
7.9 | 5260 | COc1ccc(/C=C2/SC(=O)N(CC(=O)Nc3cc(C)on3)C2=O)cc1OC [Compound 1554642] | 
6.42 | 2560 | COC(=O)c1ccc2c(c1)N(Cc1nc(-c3cccc(C)c3)oc1C)C(=O)C1CCCN21 (stereo not drawn) [Compound 5309602] | 
4.02 | 2270 | Cc1c(N2C(=O)c3ccc4c5c(ccc(c35)C2=O)CC4)c(=O)n(-c2ccccc2)n1C [Compound 1356461] | 
3.41 | 2570 | Cc1cc(OCC(=O)Nc2ccc(N3CCN(C(=O)c4ccco4)CC3)cc2)cc(C)c1Cl [Compound 1255242] | 
6.86 | 5270 | Cc1ccc(/C=c2\sc3nc(-c4ccccc4Br)nn3c2=O)o1 [Compound 1891182] | 
5.16 | 2360 | N#Cc1sc2nc(-c3ccccc3)cc(-c3ccco3)c2c1N [Compound 629074] | 
5.08 | 6870 | Cc1ccc(C)c(NC(=S)NC(NC(=O)Cc2cccc3ccccc23)C(Cl)(Cl)Cl)c1 (stereo not drawn) [Compound 2831455] | 

EC50 [1, 3] [µM] | EC50 (integrin CD11c/CD18) [nM] | SMILES | other results
6.49 | 5070 | CCOc1ccc(/C=c2\sc3nc(-c4ccco4)nn3c2=O)cc1OCC [Compound 2144321] | 
0.209 |  | CCC(=O)Nc1c(C#N)c2nc3ccccc3nc2n1C1CCCCC1 [Compound 658936] | EC50 CD11c/CD18 (integrin CD11c/CD18; [5]): 1.669 (Reverse)
6.55 | 4500 | Cc1ccc(/C=C/C(=O)Nc2ccc([N+](=O)[O-])c(NC(=O)/C=C/c3ccc(C)o3)c2)o1 [Compound 5736971] | 
5.3 | 2630 | O=c1c(-c2nc3ccccc3o2)c2oc3ccccc3n2c2ccccc12 [Compound 2321209] | 
 | 2420 | O=C(N/N=C/c1ccc(-c2ccc(S(=O)(=O)Nc3ncccn3)cc2)o1)c1cc2ccccc2cc1O [Compound 6892904] | EC50 [1, 4]: 5.49 µM
4.68 | 2540 | O=C(Nc1ccc2nc(-c3ccco3)c(-c3ccco3)nc2c1)N1CCCCCC1 [Compound 2214811] | 
2.67 | 2490 | Cc1cc(C)cc(-n2c(N)c(C(=O)Nc3c(C)n(C)n(-c4ccccc4)c3=O)c3nc4ccccc4nc32)c1 [Compound 1967927] | 
8.11 | 2720 | Cc1ccc2sc(-c3ccc(NC(=O)c4cc(-n5cnnc5)ccc4Cl)cc3)nc2c1 [Compound 1017701] | 
1.6 | 7210 | O=C(CCN1C(=O)c2ccccc2C1=O)Nc1ccc(-c2nc3ccccc3o2)cc1 [Compound 1262031] | 
 |  | O=C(O)CCN1C(=O)/C(=C\c2ccc(-c3nc4ccccc4s3)o2)SC1=S [Compound 2030970] | EC50 E320A [1, 3]: Very Low; EC50 CD11c/CD18 (integrin CD11c/CD18; [6]): N/A Very Low; EC50 CD11b/CD18 [2, 7]: Very Low; EC50 CD11b/CD18 [2, 8]: N/A Very Low
3.71 |  | C=CCn1c(SCC(=O)c2[nH]c(C)c(C(=O)OC)c2C)nc2scc(-c3ccc(OC)c(OC)c3)c2c1=O [Compound 1745635] | EC50 [1, 4]: 3.71 µM; EC50 CD11c/CD18 (integrin CD11c/CD18; [5]): Very low; EC50 CD11c/CD18 (integrin CD11c/CD18; [6]): N/A Very Low; EC50 CD11b/CD18 [2, 8]: N/A Very Low
4.24 | 3780 | CC(C)c1nc2sc3c(SCC(=O)NCc4ccco4)ncnc3c2c2c1CCC2 [Compound 664182] | 
3.65 | 4210 | CS(=O)(=O)c1ccc2c(c1)SC1=NC(=O)/C(=C/c3ccco3)C(=N)N12 [Compound 1951731] | 
4.91 | 4030 | Cc1nc(C)c(C(=O)Nc2nc3c(C)cccc3s2)o1 [Compound 3244965] | 
5.42 | 4640 | O=C(ONc1ccc(N=NC(=O)c2ccccc2O)cc1)c1ccccc1 [Compound 4483668] | 
4.99 | 2600 | COCCCNC(=O)c1c(N)n(/N=C/c2cccs2)c2nc3ccccc3nc12 [Compound 6880740] | 
 | 2450 | Cc1ccc(-c2nn3c(C)nnc3s2)cc1NC(=O)c1ccc(-c2cccc(Cl)c2)o1 [Compound 666410] | EC50 [1, 4]: 6.22 µM
2.35 | 2010 | C/C(=N/NC(=O)c1cc2ccccc2cc1O)C1C(=O)c2ccccc2C1=O [Compound 5431927] | 

SMILES | EC50 [1, 3] [µM] | EC50 (integrin CD11c/CD18) [nM] | other results
O=C(CN1C(=O)c2ccccc2C1=O)Nc1ccc(-c2nc3ccccc3o2)cc1 [Compound 1255636] | 0.678 |  | EC50 CD11c/CD18 (integrin CD11c/CD18; [6]): N/A Very Low; EC50 CD11b/CD18 [2, 7]: Very Low; EC50 CD11b/CD18 [2, 8]: N/A Very Low
O=C(Nc1ccc(N2CCN(c3ccc(O)cc3)CC2)cc1)Oc1ccccc1 [Compound 1317528] | 3.62 | 2140 | 
CCOC(=O)c1c(-n2c(C)cc(C=C3C(=O)NC(=S)NC3=O)c2C)sc2c1CCCC2 [Compound 1494229] | 6.53 |  | EC50 [1, 4]: 6.53 µM; EC50 (integrin CD11c/CD18; Table 4, K562 CD11c/CD18 cells, adhesion to fibrinogen, dose-response, read-out: EC50 CD11c/CD18): 6720 nM
